According to patent publication US8097650B2, “Method of treating a condition associated with phosphorylation of TASK-1” (The Trustees of Columbia University In The City of New York, priority 2005, dated 2012):

Key:
[1] = target: T1, TREK-1 (Homo sapiens, UniProt O95069); experiment: Heterologous expression of TREK-1, lipoxygenase products; format: cell-based; design: expressed in transfected cells
T1 sequence (O95069 1-426): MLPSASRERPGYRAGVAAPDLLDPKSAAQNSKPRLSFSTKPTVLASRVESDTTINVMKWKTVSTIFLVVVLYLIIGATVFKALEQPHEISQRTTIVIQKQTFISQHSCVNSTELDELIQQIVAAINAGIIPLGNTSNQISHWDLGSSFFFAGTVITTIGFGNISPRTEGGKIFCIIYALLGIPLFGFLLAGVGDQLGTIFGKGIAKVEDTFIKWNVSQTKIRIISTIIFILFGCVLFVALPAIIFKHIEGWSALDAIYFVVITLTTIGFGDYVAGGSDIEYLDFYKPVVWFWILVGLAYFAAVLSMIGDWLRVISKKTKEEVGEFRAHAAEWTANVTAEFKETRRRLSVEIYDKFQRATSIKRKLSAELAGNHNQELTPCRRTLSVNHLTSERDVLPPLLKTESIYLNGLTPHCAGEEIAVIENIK
From the text: In heterologous expression studies of one 2PK, TREK-1, it has been observed that a divergence in the sensitivity of the channel to various lipoxygenase products exists. […] Altered channel function may underlie some of the aberrant regulation of cell proliferation characteristic of the carcinoma cells. In addition, it has been observed that Northern analysis of normal prostate tissue show expression of TASK-1, TASK-3 and TREK-1 in prostate (Duprat F et al., […] EMBO J. 16:5464-71; Mu D et al., (2003) Cancer Cell, 3:297-302; Medhurst A D et al., (2001) Brain Res, 86:101-14).

[2] = tested on: murine TASK-1; experiment: TASK-1 current expressed in CHO cells (whole-cell ramp clamp); format: cell-based, mouse; conditions: peptide 100 nM in pipette, PMA 100 nM; for effect of peptide on C-PAF and PMA inhibition of TASK-1 current: C-PAF 185 nM
Experimental: The TASK-1 clone (provided by Professor Y. Kurachi, Osaka University) was co-transfected in CHO cells with CD8 plasmid using Lipofectamine Plus (Invitrogen) according to the manufacturer's instructions. 48 h later cells were transferred to the electrophysiology chamber and anti-CD8 coated beads (Dynal Biotech) were added to identify CD8 expressing cells. Expressing cells were voltage clamped using a ramp clamp (see below). CHO cells were used in these experiments, in part, because they express endogenous PAFR.
Chinese hamster ovary cells (CHO) were grown in F-12 medium supplemented with 10% fetal bovine serum. Twenty-four hours prior to transfection, cells were seeded into 6 well plates at 80-90% of confluence. Transfections were carried out with the GeneJammer transfection reagent (Stratagene) according to the manufacturer's instructions. Briefly, cells were washed with PBS and their medium replaced with supplemented F-12 medium (900 μl/well). For each well, GeneJammer (6 μl) was incubated with Opti-MEM (90 μl) followed by the addition of DNA (1 μg). This mixture was then added to the wells and 3 h later an additional 2 ml of supplemented F-12 medium was added. After incubating overnight, the cells were washed and their medium replaced.
Cells were either co-transfected with pCMV-TASK1 together with pEGFP-C1 (1 μg total, 3:1) or transfected with […] or T381A-pTIE (1 μg). 48 h after the transfection the cells were checked under the microscope for green fluorescence. Approximately 20% of the cells were positive for EGFP and these were then used for patch-clamp experiments. Due to the culture-to-culture variability in the expression of TASK-1 current, most comparisons were made on matched controls from the same transfection. Summary results were then obtained by pooling data from several different culture preparations.
(§1) The myocyte suspension or the coverslip with CHO cells was placed into a perfusion chamber, mounted on the stage of an inverted microscope. Unless otherwise indicated, CHO cells were superfused at room temperature with standard external Tyrode's buffer, containing (mM): NaCl, 140; KCl, 5.4; CaCl2, 1; MgCl2, 1; HEPES, 5; glucose, 10; adjusted to pH 7.4. Recordings were begun after the current reached a stable baseline (usually 3 to 4 min after initial cell rupture). In myocytes, TASK-1 current is small and exists in the presence of numerous larger K^+ currents. In order to increase the inward component of TASK-1 current and to block other potassium currents in myocytes, a modified high K^+ external solution (modified Tyrode's) was used to reduce outward rectification of TASK-1 current. The composition of this solution-was (in mM): NaCl, 100; KCl, 50; CaCl2, 1; MgCl2, 1; HEPES, 5; glucose, 10; tetraethylammonium (TEA), 1; CsCl, 5; adjusted to pH 7.4. Membrane potential and current were measured in the whole cell configuration using borosilicate glass pipettes with a tip resistance between […] and filled with a pipette solution containing (mM): aspartic acid, 130; KOH, 146; NaCl, 10; CaCl2, 2; EGTA, 5; HEPES, 10; MGATP, 2; pH 7.2. The stock solutions of C-PAF and of the PKC inhibitor, bisindolylmaleimide (BIM-I; Calbiochem), were prepared in water and diluted to the final concentrations in Tyrode's or modified Tyrode's, as appropriate. The PKC activator, PMA, was prepared in DMSO and then diluted in Tyrode's. […] Myocytes treated with the peptides were monitored continuously beginning immediately after rupture to detect the occurrence of any arrhythmias during dialysis of the peptide. Application of C-PAF to cells treated with the inhibitor peptide was started after the peptide had been permitted to dialyse into the cell (8-10 min after rupture for CHO or 10-12 min after rupture for myocytes).
The current and the voltage protocols were generated using Clampex 8.0 software applied by means of an Axopatch 200-B and a Digidata 1200 interface (Axon Instruments). […]

[3] = tested on: TASK-1; experiment: C-PAF-sensitive TASK-1 current in mouse ventricular myocytes dialyzed with PKCε peptides; format: cell-based; conditions: for effect of peptide on ability of C-PAF to reduce TASK-1 current: held at −10 mV, peptide 100 nM in pipette, C-PAF 185 nM
Experimental: (§2) Mouse ventricular myocytes were isolated using a retrograde coronary perfusion method previously published (Kuznetsov V et al. (1995) Circ Res 76: 40-52). All the experiments were carried out according to the guidelines issued by the IACUC of Columbia University. Adult mice 2 or 3 months old, were anaesthetized with a xylazine and ketamine mix and heparinized, the heart was quickly removed and the ascending aorta was connected to the outlet of a Langendorff column and perfused with 20-25 ml of a buffer solution (37° C.) containing (mM):NaCl, 112; KCl, 5.4; NaHCO3, 4.2; MgCl2, 1.6; HEPES, 20; glucose, 5.4; NaH2PO4, 1.7; taurine, 10; L-glutamine, 4.1; MEM amino acids solution, 2%; MEM vitamin solution, 1%; adjusted to pH 7.4, and equilibrated with 100% O2. Next, the heart was perfused with an enzyme solution containing collagenase (0.2 mg/ml; Worthington Type II) and trypsin (0.04 mg/ml) at 35° C. for 10-12 min. After this perfusion, the atria were removed and the ventricles minced and transferred to a 50 ml flask with an enzyme solution containing collagenase (0.45 mg/ml), trypsin (0.08 mg/ml), Ca^2+ (0.75 mM) and bovine serum albumin (BSA; 4.8 mg/ml). The flask was shaken vigorously for 5-10 min at 32° C. before the supernatant was removed and the cells were collected by centrifugation, this operation was repeated two or three times and additional disaggregated cells were collected. After centrifugation, the myocytes were resuspended in the buffer solution containing Ca^2+ (0.75 mM) and BSA and stored at room temperature until use. Rod-shaped, Ca^2+-tolerant myocytes, obtained with this procedure, were used within 6 h of dissociation. Measurements were performed only on quiescent myocytes with clear striations
The myocyte suspension or the coverslip with CHO cells was placed into a perfusion chamber, mounted on the stage of an inverted microscope. Unless otherwise indicated, CHO cells were superfused at room temperature with standard external Tyrode's buffer, containing (mM): NaCl, 140; KCl, 5.4; CaCl2, 1; MgCl2, 1; HEPES, 5; glucose, 10; adjusted to pH 7.4. Recordings were begun after the current reached a stable baseline (usually 3 to 4 min after initial cell rupture). In myocytes, TASK-1 current is small and exists in the presence of numerous larger K^+ currents. […] Membrane potential and current were measured in the whole cell configuration using borosilicate glass pipettes with a tip resistance between […] and filled with a pipette solution containing (mM): aspartic acid, 130; KOH, 146; NaCl, 10; CaCl2, 2; EGTA, 5; HEPES, 10; MGATP, 2; pH 7.2. […] Myocytes treated with the peptides were monitored continuously beginning immediately after rupture to detect the occurrence of any arrhythmias during dialysis of the peptide. […]

[4] = tested on: mouse ventricular myocytes; experiment: Repolarization abnormalities in mouse ventricular myocytes paced at 1 Hz with PKCε peptides; format: cell-based
Experimental: as §2, §1
The current and the voltage protocols were generated using Clampex 8.0 software applied by means of an Axopatch 200-B and a Digidata 1200 interface (Axon Instruments). In current clamp mode, for recording action potentials, the signals were filtered at 1 KHz (low pass Bessel filter) and acquired at a sampling rate of 5 KHz. […]

[5] = tested on: murine ventricular myocytes; experiment: Arrhythmias induced by PKCε activator peptide in murine ventricular myocytes, rescue by TREK-1 activators; format: cell-based, mouse; conditions: AA 100 nM or tyrphostin 47 50 μM from 1 min after rupture
Experimental: FIGS. 23A-23D. Activation of TREK-1 can overcome arrhythmias induced by inhibition of TASK-1. Isolated murine ventricular myocytes were studied in current clamp mode and paced at 1 Hz. The cells were studied in regular Tyrode's, pH 7.4. Recordings were begun immediately after rupture and continued for 12-15 min, with the 5.5 min time point illustrated. A PKCε-specific activator peptide (100 nM) was included in the patch pipette, which lead to inhibition of TASK-1 current and repolarization abnormalities (23A and 23B).
FIG. 25. Activation of TREK-1 can overcome arrhythmias induced by inhibition of TASK-1. Isolated murine ventricular myocytes were studied in current clamp mode and paced at 1 Hz. The cells were studied in regular Tyrode's, pH 7.4. Recordings were begun immediately after rupture and continued for 12-15 min. A PKCε-specific activator peptide (100 nM) […] or a scrambled control peptide (100 nM) (25A) was included in the patch pipette. After the activator peptide had induced repolarization abnormalities (25B left panel), a TREK-1 activator, ONO-RS-082 (100 nM) was added to the superfusion.
Isolated murine ventricular myocytes were studied in current clamp mode and paced at 1 Hz. The cells were studied in regular Tyrode's, pH 7.4, and recordings were begun immediately after rupture and continued for 12-15 min, with the 5.5 min timepoint illustrated. As shown in FIGS. 23A and 23B, a PKCε-specific activator peptide (100 nM) was included in the patch pipette which lead to inhibition of TASK-1 current and repolarization abnormalities.

[6] = target: T1, TREK-1; experiment: Human TREK-1 current in CHO cells (ramp clamp); format: cell-based; design: expressed in transfected cells; host or cells: CHO cells; conditions: +50 mV; riluzole 100 nM, anisomycin 3.7 μM, CDC 10 μM, tyrphostins 10 μM
Experimental: FIG. 18. Structure-activity analysis of activators of human TREK-1 channel. Human TREK-1 was expressed in CHO cells and current was measured during a ramp protocol (−120 to +50 mV in 6 s). The activation of the current at +50 mV in the presence of various putative TREK-1 activators was measured and summarized in the bar graph as % activation over basal. Various endogenous lipids, most related to lipoxygenase metabolites of either arachidonic acid or linoleic acid, were tested (all at 100 nM).
FIG. 21. CHO cells (hTREK-1, hTASK-1) or HEK cells (mTRAAK) were co-transfected with plasmids encoding one of the two pore domain channels and GFP using the GeneJammer reagent. After 48-60 h, the expressed current was measured using a ramp protocol while the cells were perfused with regular Tyrode's solution containing varying concentrations of ONO-RS-082 (range of concentration from 10 nM to 500 μM as noted in FIG. 21) until a steady state was reached. Each cell was exposed to only one concentration of drug. Panel A: TREK-1 current was determined using a ramp clamp, and the percent increase induced by ONO-RS-082 was measured at the most positive imposed voltage (n≧5). The EC50 for activation was around 3 μM and the basal and ONO-activated current densities are noted. Panel B: TASK-1 current was determined using a ramp clamp in Tyrode's solution at pH=8 and the percent increase induced by ONO-RS-082 was measured at the most positive imposed voltage (n≧4). The EC50 was around 8 μM and the basal and ONO-activated current densities are noted. Panel C: TRAAK current was determined using a ramp clamp, and the percent increase induced by ONO-RS-082 was measured at the most positive imposed voltage (n≧4). The EC50 was around 0.9 μM and the basal and ONO-activated current densities are noted.
Subsequently, the structure-activity analysis of activators of human TREK-1 channel was determined. […] The activation of the current at +50 mV in the presence of various putative TREK-1 activators was measured and summarized in the bar graph as % activation over basal.
CHO cells were transfected with a plasmid encoding human TREK-1 and the current was studied by patch clamp. The current-voltage relation was determined using a ramp protocol that went from −130 mV to +40 mV in 6 s (after correction for the junction potential). […] This is typical of 7 cells.

Compound: CCCCCC(/C=C/C=C\C/C=C\C/C=C\CCCC(=O)O)OO (stereo not shown) [15-HPETE]
- effect on TREK-1 current [1]: increases TREK-1 current

Compound: EAVSLKPT [PKCε-inhibitor peptide]
- effect of peptide on PMA-sensitive current [2]: completely blocked
- effect of peptide on C-PAF and PMA inhibition of TASK-1 current [2]: blocked the effect
- effect of peptide on ability of C-PAF to reduce TASK-1 current [3]: significantly inhibited
- C-PAF-sensitive current in the presence of peptide ([3]; ramp −50 to +30 mV, modified Tyrode's, inhibitor peptide 100 nM): abolished
- repolarization abnormalities ([4]; C-PAF, PKCε-specific inhibitor peptide 100 nM in pipette): completely absent

Compound: N#C/C(=C\c1ccc(O)c(O)c1)C(N)=S [tyrphostin 47]
- arrhythmias induced by PKCε activator peptide during drug superfusion [5]: fewer arrhythmias

Compound: LSETKPAV [scrambled peptide]
- effect of peptide on C-PAF and PMA inhibition of TASK-1 current [2]: no effect
- effect of peptide on ability of C-PAF to reduce TASK-1 current [3]: had no effect
- cells with repolarization abnormalities / abnormal automaticity ([4]; peptide in pipette, no added C-PAF): 2 of 10

Compound: CCCCC[C@H](O)/C=C/C=C\CCCCCCCC(=O)O [13-HODE, 13(S)-hydroxyoctadecadienoic acid]
- effect on TREK-1 current [1]: reduces current

Compound: Nc1nc2ccc(OC(F)(F)F)cc2s1 [riluzole]
- type of activation of human TREK-1 current [6]: slow-onset activators

Compound: CCCCC/C=C\C/C=C\C/C=C\C/C=C\CCCC(=O)O [arachidonic acid]
- arrhythmias induced by PKCε activator peptide during drug superfusion [5]: fewer arrhythmias
